For this experiment, the system named is U937 / B78H1-VCAM-1 aggregate disruption, flow cytometry. The experiment can be described thus: allosteric VLA-4 inhibitors disrupting cell aggregates, orthogonal assay, flow cytometry, set 1 (AID 504578). Conditions: at 20 µM; stronger effect = higher value. For orientation: Flow cytometry measures light scatter and fluorescence of single cells or particles in a stream.

SMILES strings stand for the structures.

For the compound `c1ccc2c(-c3ccc(OCCN4CCCCC4)cc3)c(-c3ccsc3)sc2c1`, the disaggregation rating is 1.
Next, `COc1cccc(-c2sc3ccccc3c2-c2ccc(OCCN(C)C)cc2)c1`: 1; `c1ccc(-c2sc3ccccc3c2-c2ccc(OCCN3CCCC3)cc2)cc1`: 1; `COc1cccc(-c2sc3ccccc3c2-c2ccc(OCCN3CCCC3)cc2)c1`: 1.
Next, `c1ccc2c(-c3ccc(OCCN4CCCC4)cc3)c(-c3ccsc3)sc2c1`: 2; `CN(C)CCOc1ccc(-c2c(-c3ccccc3)sc3ccccc23)cc1`: 2; `COc1ccc(-c2sc3ccccc3c2-c2ccc(OCCN(C)C)cc2)cc1`: 2.

The record behind these values is PubChem BioAssay AID504578 (NMMLSC, 2011).
